The results in this text go back to a melting point compilation (Tetko et al.; mined from patent text by program, amines drawn as free bases though some values may be those of a salt).

Structures are written as SMILES.

The melting point is the temperature of the solid-liquid transition.

`COc1ccnc(C(=O)N[C@H]2COC(=O)[C@H](Cc3ccccc3)[C@@H](OCSC)[C@H](C)OC2=O)c1O` gave a melting point of 159 to 160 °C.

For `COc1cc(S(N)(=O)=O)cnc1Cl`, the melting point lay within 156 to 158 °C.

As to `COc1cc(/C=C/C(=O)/C=C/c2cc(OC)c(OCCN=[N+]=[N-])c(OC)c2)cc(OC)c1OCCN=[N+]=[N-]`, the melting point is 107 to 109 °C.

Take `O=C1C(=Cn2ccnc2)C(c2ccccc2)c2ccccc21` (centres undefined): the melting point was in the range of 204 to 206 °C.

Turning to `CCCCn1c(C)cc(=O)c(C(=O)Nc2ccccc2)c1-c1ccccc1`, the melting point fell in the range of 190 to 193 °C.

The compound `CC(C)n1nc(-c2cc(C(=O)N3CCN(C)CC3)cnc2-c2ccccc2)ccc1=O` returned a melting point of 165 to 166 °C.

In turn, `O=Cc1cccc(C=O)c1O` displayed a melting point of 122 to 125 °C.

Consider `CCCn1c(=O)c2[nH]c(C34CCC(C)(C(=O)O3)C4(C)C)nc2n(CCC)c1=O` (centres undefined), for which the melting point was in the range of 200 to 201 °C.

On to `CC(C)(C)C=CC1=C(O)C(=O)c2ccccc2C1=O`, for which the melting point was in the range of 126 to 128 °C.

Consider `c1ccc(C2=Nc3ccccc3OC2)cc1`, for which the melting point is 108 to 111 °C.

`CS(=O)(=O)c1ccc(Oc2ccc(Br)cc2)nc1`: the melting point fell in the range of 125 to 126 °C.

Regarding `COC(=O)CCC#Cc1cc(Cl)ccc1NS(=O)(=O)c1ccc(-c2ccccc2)cc1`, the melting point came to 93 °C.

On to `COc1ccc2c(C)c3n(c2c1)CCCC3NC=O` (centres undefined), for which the melting point lay within 181 to 182 °C.

Regarding `CC(C)OC1CCC(=O)N1S(=O)(=O)C=Cc1ccc([N+](=O)[O-])cc1` (centres undefined), the melting point lay within 178 to 179 °C.

`CCCCCCCCCCCCCCCCCCCCCC(=O)Nc1ccc(NC(=O)NS(=O)(=O)c2ccc3ccccc3c2)cc1` yielded a melting point of 179 °C.

`CCC(C)C(NC(=O)C(CSC(C)=O)C(F)(F)F)C(=O)O` (centres undefined) displayed a melting point of 81 to 85 °C.

`CCOC(=O)C1=C(C)NC(CSCCOC(C)=O)=C(C(=O)OCC)C1c1cccc([N+](=O)[O-])c1` (centres undefined) registered a melting point of 84 to 86 °C.

The compound `Cc1cc(-c2cc(C(F)(F)F)n3ncc(-c4cccnc4)c3n2)ccc1C(F)(F)F` registered a melting point of 177 °C.

On to `O=C1NCCC[C@@H]1NS(=O)(=O)c1ccccc1C(F)(F)F`, for which the melting point fell in the range of 161 to 163 °C.

Compound `O=C(c1ccccc1)N1Cc2[nH]c3ccccc3c(=O)c2C1` displayed a melting point of 275 °C.

Take `COC(=O)c1ncn2c1c(OC)nc1ccccc12`: the melting point was in the range of 189 to 191 °C.

As for `CC1(C)C(=O)Nc2ccccc2C1(O)c1ccccc1` (centres undefined), the melting point was in the range of 185 to 187 °C.

In turn, `CCCCCCCc1ccc(CCCC(N)(CO)CCO)cc1` (centres undefined) came in with a melting point of 68 to 71 °C.

On to `CCOC(=O)c1cc(C#N)c(C)nc1Cl`, for which the melting point was in the range of 43 to 45 °C.

Consider `O=C(NCC1CCN(C[C@H]2COc3ccc(Cl)cc3O2)CC1)c1cccnc1`, for which the melting point fell in the range of 172 to 174 °C.

Consider `CC(C)(C)c1cc(-c2nc3n(c2CN2CCOCC2)CCS3)cc(C(C)(C)C)c1O`, for which the melting point lay within 231 to 233 °C.

The compound `CCn1c2ccccc2c2[nH]c(=O)c3nccn3c21` showed a melting point of 315 °C.

`N#CC1(CCCCCCCCCCCCC2(C(=O)O)CC2)CC1` displayed a melting point of 44.4 to 46.9 °C.

On to `O=c1c(O)c(-c2nnc(Cc3ccc(F)cc3)o2)oc2ccccc12`, for which the melting point was determined as 221 °C.

As for `CC(=O)Oc1ccc(-c2cnc(-c3ccccc3)nc2Cl)cc1OC(C)=O`, the melting point was in the range of 152 to 153 °C.

The compound `O=C(Nc1ccc(C(=O)O)cc1)NN1CC=CCC1` displayed a melting point greater than 240 °C.

In turn, `COc1ccc(-c2csc(Nc3cccc(C)n3)n2)cc1OC` had a melting point of 264 to 266 °C.

In turn, `C=Cc1cc(CC(=O)O)ccc1OCc1ccc2ccccc2n1` displayed a melting point of 173 °C.

In turn, `O=C1C2CCCN2S(=O)(=O)N1CSc1ccccc1` (centres undefined) had a melting point of 90.5 to 91.5 °C.

With `N#Cc1ccc2c(c1)c(-c1ccccc1)nn2CCCBr`, the melting point lay within 100 to 102 °C.

`CN1CC(CO)C=C2c3cccc4c3c(cn4C(C)(C)C)CC21` (centres undefined) showed a melting point of 181 to 183 °C.

`CC(C)(C)NCC(O)c1ccc(N)c(C#N)c1Cl` (centres undefined): the melting point was in the range of 85 to 88 °C.

With `O=[N+]([O-])CS(=O)(=O)c1ccc(CO)cc1`, the melting point lay in the range of 73 to 75 °C.

Take `CSc1ccc(-c2nc(SC)c(C#N)c(=O)n2-c2ccc(C)c(C)c2)cc1`: the melting point lay within 234 to 236 °C.

`COc1cc(N(C)C)nc(NC(=O)NS(=O)(=O)c2ccccc2CCC(F)(F)F)n1` gave a melting point of 183 to 184 °C.

Consider `O=c1c2ccccc2oc2c(C3CCCCC3)cccc12`, for which the melting point fell in the range of 122 to 124 °C.

In turn, `COc1cccc(-n2c(=O)n(O)c(=O)c3cc(F)c(N4CCCC4)cc32)c1` yielded a melting point of 216 to 218 °C.

Take `Clc1ccc2c(Nc3ccc(CNC4CCN(Cc5ccccc5)CC4)cc3)ccnc2c1`: the melting point lay within 160 to 164 °C.

For `CCS(=O)(=O)N[C@H](C(=O)NCCc1ccc(OC/C=C/c2ccccc2)c(OC)c1)C(C)C`, the melting point is 128 to 133 °C.

As for `COc1cc(-c2ccc(C#N)o2)ccc1Br`, the melting point is 76 to 77 °C.

As to `CCOC(=O)N1CCC(O)(CN)CC1`, the melting point came out at 82 °C.

Compound `Cc1nc2ccccc2cc1NC(=O)N1CCN(c2cc(Cl)cc(Cl)c2)CC1` displayed a melting point of 247 to 249 °C.

The compound `Cc1ccc(NC(=O)c2ccc(CN3CCN(C)CC3)c(C(F)F)c2)cc1Nc1nccc(-c2cncnc2)n1` showed a melting point of 206 to 207 °C.

With `COCOc1ccc(-c2ncc3ccc(-c4csc(CN5CCOCC5)c4)nc3n2)cc1`, the melting point is greater than 268 °C.

With `CNC(=O)c1ccc(F)c(Cl)c1`, the melting point was 108 to 110 °C.

For the compound `Cc1c(C)c(C=O)c2c(c1C)CC(C)(C)O2`, the melting point lay within 87 to 88 °C.

Take `Fc1cccc(SCc2nnc(-c3ccc4c(c3)CCO4)o2)c1`: the melting point lay in the range of 55 to 56 °C.

Consider `Cc1cccc(C(=O)NC(C)C)c1NC(=O)c1cc(C(F)(F)F)nn1-c1ncccc1Cl`, for which the melting point is 194 to 196 °C.

Regarding `CC(C)(C(N)=O)c1ccc(C(=O)O)cc1`, the melting point lay within 218 to 219 °C.

Take `CCOC(=O)C1=C(N)NC(C)=CC1c1ccccc1` (centres undefined): the melting point came out at 150 °C.

Consider `O=C(O)c1ccc(-c2c(-c3ccccc3)[nH]c3ccccc23)cc1`, for which the melting point lay in the range of 252 to 253 °C.

Compound `C=Cc1ccc2[nH]cc(S(=O)(=O)c3ccccc3)c2c1` yielded a melting point of 140 to 145 °C.

As for `C=CCCC(C#N)(C#N)Cc1ccc(Cl)cc1`, the melting point worked out at 63.7 °C.

The compound `O=C1CN(CCCOc2ccc(NC(=O)c3cc(F)cc(N4CCCCC4)c3)c3ccccc23)CCN1` yielded a melting point of 90 to 92 °C.

As for `COCCCCNC(=O)C(c1ccccc1)c1ccccc1`, the melting point fell in the range of 75.5 to 76.8 °C.

`CCC(=O)c1cc(-c2cccc(OCc3ccc(COC(=O)c4ccccc4)c(COC(=O)c4ccccc4)c3)c2)cs1` showed a melting point of 117 °C.

On to `Cc1cc2ncnn2nc1OCC(C)(C)CCCS(N)(=O)=O`, for which the melting point was 171 to 172 °C.

`OC1CCCc2c(-c3ccc4nc(-c5ccc(Cl)cc5)cn4c3)cccc21` (centres undefined) showed a melting point of 218 to 220 °C.

In the case of `CC(C)[C@H](NC(=O)N(C)Cc1nc2ccccc2[nH]1)C(=O)N[C@@H](Cc1ccccc1)[C@@H](O)C[C@H](Cc1ccccc1)NC(=O)OCc1cccnc1`, the melting point lay within 110 to 114 °C.

Regarding `CCOC(=O)c1c(C(F)(F)F)nc(C(F)(F)F)c(C(=O)OC)c1N1CCCC1`, the melting point lay in the range of 68.5 to 70 °C.

`OCc1cc(-c2ccc(Cl)c(Cl)c2)n(Cc2cccc(Cl)c2)n1`: the melting point came out at 95 °C.

In turn, `COc1ccc2[nH]c3c(c2c1)C(C(=O)O)CCC3` (centres undefined) displayed a melting point of 175 to 177 °C.

`C=CCC(CC)(C(=O)c1ccc(OCCO)cc1)N(C)C` (centres undefined) returned a melting point of 80 to 82 °C.

`Nc1c(CC(=O)O)cccc1S(=O)(=O)c1ccccc1` displayed a melting point of 218 to 220 °C.

As to `Cc1ccc2c(c1)C(C(=O)O)c1cc(Br)ccc1CO2` (centres undefined), the melting point lay in the range of 168 to 170 °C.

`COc1ccc(S(=O)(=O)Nc2ccccc2NC(=O)c2ccccc2)cc1OC` returned a melting point of 183 to 184 °C.

`COc1cc(C(=O)Nc2nn(-c3ccccc3)cc2C=O)ccc1OCc1nc(-c2ccccc2)oc1C` returned a melting point of 234 to 235 °C.

On to `CC(=O)OC1CCC2(C)C(=CCC3C2CCC2(C)C(C(C)=O)CCC32F)C1` (centres undefined), for which the melting point was found to be 128 °C.

Compound `CCCCCCC(=O)C=Cc1ccc(OCc2ccccc2)c(OC)c1` registered a melting point of 78 to 81 °C.

In turn, `COc1cc2c(cc1OC)C(=O)C(=O)N(CCCN(C)CCCSc1ccccc1)CC2` showed a melting point of 77 to 79 °C.

As for `O=C(O)CCC(=O)c1ccc(Br)c(S(=O)(=O)Cl)c1`, the melting point fell in the range of 183 to 185 °C.

In turn, `N#Cc1nc(-c2c(Cl)cc(C(F)(F)F)cc2Cl)[nH]c1C#N` showed a melting point of 194 to 195 °C.

In the case of `O=C(c1ccc(I)cc1)C1(c2ccccc2F)CO1` (centres undefined), the melting point fell in the range of 75 to 76 °C.

For the compound `COc1ccc2c(c1)c(CN(O)C(C)=O)c(C)n2C(=O)c1ccc(Cl)cc1`, the melting point was in the range of 160 to 161 °C.

`Clc1ccc(CN2CC=C(/C=C/c3ccccc3)CC2)cc1Cl` gave a melting point of 123 to 125 °C.

For `CCOCC1Cc2cc(S(=O)(=O)N(C)C)c(Cl)c(Cl)c2O1` (centres undefined), the melting point fell in the range of 91 to 92 °C.

Consider `COc1ccc(Oc2ccc(C(=O)N(C3CCCCC3)C3CCCC3)cc2)cc1OC`, for which the melting point worked out at 154 °C.

Compound `CN(C)c1ccc(C=Cc2cc3cc(O)ccc3o2)cc1` yielded a melting point of 177 to 178 °C.

With `CC(=O)Nc1ccccc1C(=O)NCCN1CCC(Nc2nc3ccccc3n2Cc2ccc(F)cc2)CC1`, the melting point came to 171 °C.

On to `COC(=O)c1ccc(C(=O)Nc2nc(-c3cccc(C)c3)c(-c3ccncn3)s2)cc1`, for which the melting point was in the range of 339 to 341 °C.

`Cc1ccc(-c2ccc3c(c2)C=C(C(=O)OC(C)(C)C)CO3)cc1` registered a melting point of 80 to 82 °C.

`O=C(N[C@H](Cc1ccccc1C(F)(F)F)[C@@H](O)c1ccc(F)cc1)c1cccc2ccccc12` (racemic) registered a melting point of 193 to 194 °C.

Compound `COc1ccc(-c2sc3cc(OC)ccc3c2C(=O)c2ccc(O)cc2)cc1` displayed a melting point of 114 to 116 °C.

`CCCCCCC(C)(C)c1ccc([C@@H]2CC(=O)C[C@@H](O)C2)c(OCc2ccccc2)c1` (relative stereo) returned a melting point of 95 °C.
